This data set in a line: Solubility test of each organic compound in pure water by LC-MS analysis. The data set is classed as physicochemical. The settings on record: 1 mg compound in 1 mL water, ultrasonic waves five minutes, filtered, evaluated from LC peak area; for solubility at 5 min: pure water, thermodynamic from solid. On the procedure: In the LC-MS analysis, liquid chromatography (LC) separation was carried out with ACQUITY UPLC (Waters Corporation), and mass spectrometry (MS) analysis was carried out with Xevo G2 Tof MS (Waters Corporation). Note that this analysis was performed on Hid2Phen, Pyrrd-Phen, and PrdP2Phen. ACQUITY UPLC BEH C8 (2.1×100 mm, 1.7 μm) was used as a column for the LC separation. Acetonitrile was used for Mobile Phase A and a 0.1% aqueous solution of formic acid was used for Mobile Phase B. The injection amount of the sample was 5.0 μL. Note that in the analysis, the wavelength of a photodiode array detector was set to 263 nm±1 nm.
Then, in a 5-mL sample bottle, 1 mg of each organic compound was put and 1 mL of water was added thereto. The mixture was irradiated with ultrasonic waves for five minutes. The mixture was filtered through a membrane filter to remove the solid. The resulting solution was subjected to the LC-MS analysis to create a chromatogram. The solubility was evaluated from the area of a peak in the chromatograph.

Values after ≈ are worked out from the molar mass of the structure shown. “Also recorded” adds a separate entry of the source. Where only a bound is given, the exact number is not on record here.

Broadly, the solubility is the dissolved amount per volume that the medium holds. A lower solubility goes with a poorly soluble substance.

Take `c1cc(N2CC3CCCCC3C2)c2ccc3c(N4CC5CCCCC5C4)ccnc3c2n1` (stereo not drawn) [Hid2Phen, 4,7-di(2,3,3a,4,5,6,7,7a-octahydro-^1H-isoindol-2-yl)-1,10-phenanthroline]: the solubility at 5 min is 5.5 µg/mL (≈ 12.9 µM). Turning to `c1cc(-c2ccc(N3CCCC3)cc2)c2ccc3c(-c4ccc(N5CCCC5)cc4)ccnc3c2n1` [PrdP2Phen, 4,7-bis[4-(1-pyrrolidinyl)phenyl]-1,10-phenanthroline], the “Solubility in pure water” value is recorded as “below the lower detection limit; also recorded: extremely low solubility in pure water; also recorded: Not detected”.

`c1cc(N2CCCC2)c2ccc3c(N4CCCC4)ccnc3c2n1` [Pyrrd-Phen, 4,7-di-1-pyrrolidinyl-1,10-phenanthroline] registered a solubility at 5 min not below 50 µg/mL.
